Test results from the supplement of paper PMC6045584.

The test systems below were run with CS(=O)(=O)c1ccc(C(=O)Nc2ccc(Cl)c(-c3ccccn3)c2)c(Cl)c1 [VISMODEGIB] (assay: area under dose-response curve of surviving fraction (unscaled, Aref=0) (surviving fraction x log10(nM)); higher = more resistant). Details: exposure time: 5 days; dose range 0.5-1000 nM.
Outline: (§1)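 Tumour cell lines in 384-well plates were exposed to eight inhibitor concentrations, from 0.5 to 1000 nM, for five days, and viability was read by CellTiter-Glo luminescence in three screens per line. Signals were normalised to DMSO-only wells, and 3-parameter logistic regression in the drc R package fitted dose-response survival curves to the surviving fractions. Area under the curve is given as the unscaled activity area. That area is taken over log10 dose with Aref = 0.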

Test System | area under dose-response curve
KPD BONE | 3.27
DU4475 BREAST | 3.21
COLO320DM LARGE INTESTINE | 3.45
T47D BREAST | 3.3
H23 LUNG | 3.43
SCC90 HEADNECK | 2.93
MG63 BONE | 3.19
A549 LUNG | 3.34

What follows are test systems tested with Nc1ncn([C@H]2C[C@H](O)[C@@H](CO)O2)c(=O)n1 [DECITABINE] in the same assay as above. Details: exposure time: 5 days; dose range 0.5-1000 nM.
Outline: as §1

Test System | area under dose-response curve
HCC1806 BREAST | 1.27
HU09 BONE | 3.33
HOSMNG BONE | 3.51
CASKI CERVIX | 2.1
MDAMB231 BREAST | 3.17
CAL51 BREAST | 2.92
MDAMB436 BREAST | 3.1
HSSYII SYNOVIAL | 2.67
CAL120 BREAST | 3.03
MCF7 BREAST | 2.83
MFM223 BREAST | 3.65
PCI30 HEADNECK | 3.24
HOS BONE | 3.22
JIMT1 BREAST | 2.86
LM7 BONE | 3.06
SUM149 BREAST | 2.01
MDAMB361 BREAST | 3.03
SAOS2 BONE | 3.06

Test System | area under dose-response curve
HCC1395 BREAST | 4.02
HCC1954 BREAST | 4.03
HELA CERVIX | 3.41
CAL72 BONE | 3.26
MDAMB134 BREAST | 3.67
C33A CERVIX | 3.03
SKBR3 BREAST | 3.29
MHM BONE | 3.4
SYO1 SYNOVIAL | 2.46
KPD BONE | 2.08
DU4475 BREAST | 1.99
COLO320DM LARGE INTESTINE | 3.27
T47D BREAST | 3.53
H23 LUNG | 2.74
SCC90 HEADNECK | 3.6
MG63 BONE | 1.88
A549 LUNG | 3.29

Each test system was assayed with O=c1[nH]cc(F)c(=O)[nH]1 [FLUOROURACIL] in the same assay as above. Details: exposure time: 5 days; dose range 0.5-1000 nM.
Outline: as §1

Test System | area under dose-response curve
HCC1806 BREAST | 3.09
HU09 BONE | 3.06
HOSMNG BONE | 3.41
CASKI CERVIX | 3.05
MDAMB231 BREAST | 3.13
CAL51 BREAST | 3.05
MDAMB436 BREAST | 2.81
HSSYII SYNOVIAL | 3.07
CAL120 BREAST | 3.16
MCF7 BREAST | 2.99
MFM223 BREAST | 2.92
PCI30 HEADNECK | 3.3
HOS BONE | 3.19
JIMT1 BREAST | 3.03
LM7 BONE | 2.96
SUM149 BREAST | 2.9
MDAMB361 BREAST | 2.28
SAOS2 BONE | 2.91

Test System | area under dose-response curve
HCC1395 BREAST | 3.24
HCC1954 BREAST | 2.96
HELA CERVIX | 3.55
CAL72 BONE | 3.25
MDAMB134 BREAST | 2.74
C33A CERVIX | 3.66
SKBR3 BREAST | 2.95
MHM BONE | 3.46
SYO1 SYNOVIAL | 2.82
KPD BONE | 3.27
DU4475 BREAST | 3.34
COLO320DM LARGE INTESTINE | 2.87
T47D BREAST | 3.16
H23 LUNG | 3.28
SCC90 HEADNECK | 3.17
MG63 BONE | 3.26
A549 LUNG | 3.27

These test systems were tested with Oc1ccc(/C=C/c2cc(O)cc(O)c2)cc1 [RESVERATROL] in the same assay as above. Details: exposure time: 5 days; dose range 0.5-1000 nM.
Outline: as §1

Test System | area under dose-response curve
HCC1806 BREAST | 3.7
HU09 BONE | 3.57
HOSMNG BONE | 2.77
CASKI CERVIX | 3.22
MDAMB231 BREAST | 3.26
CAL51 BREAST | 3.35
MDAMB436 BREAST | 3.36
HSSYII SYNOVIAL | 3.27
CAL120 BREAST | 3.3
MCF7 BREAST | 3.21
MFM223 BREAST | 3.94
PCI30 HEADNECK | 3.54
HOS BONE | 3.43
JIMT1 BREAST | 3.4
LM7 BONE | 3.63
SUM149 BREAST | 3.39
MDAMB361 BREAST | 2.99

Test System | area under dose-response curve
SAOS2 BONE | 4.04
HCC1395 BREAST | 3.66
HCC1954 BREAST | 3.7
HELA CERVIX | 3.64
CAL72 BONE | 3.49
MDAMB134 BREAST | 3.44
C33A CERVIX | 3.17
SKBR3 BREAST | 3.5
MHM BONE | 3.41
SYO1 SYNOVIAL | 3.23
KPD BONE | 3.44
DU4475 BREAST | 3.25
COLO320DM LARGE INTESTINE | 3.54
T47D BREAST | 3.51
H23 LUNG | 3.42
MG63 BONE | 3.52
A549 LUNG | 3.51
